# From publication PMC4886532, “A highly soluble, non-phototoxic, non-fluorescent blebbistatin derivative” (Scientific Reports, 2016)
# What was measured:
# [1] = system: M2 cells; test: Inhibition of blebbing (blebbing index) of M2 cells; type: cell-based, human
# Protocol: Next, we compared the non-muscle myosin II inhibition by para-aminoblebbistatin, para-nitroblebbistatin and blebbistatin in human melanoma (M2) and HeLa cells. As blebbistatin acquired its name from its ability to block blebbing of M2 cells, we compared blebbing indices[17] of M2 cells in time, incubated in the three different myosin II inhibitors at different concentrations (Fig. 3c–e). Even 5 μM concentrations of the myosin II inhibitors achieved significant decrease in the blebbing indices of the cells within an hour, whereas higher concentrations of the inhibitors completely stopped blebbing of the cells within >40–60 minutes (10 μM) or >20 minutes (25 and 50 μM).
# For blebbing index determination, M2 cells were incubated for 30 minutes in PBS in every case prior to the addition of inhibitors, in order to initiate extensive blebbing. Blebbing of the cells was monitored before as well as after inhibitor addition to the cells. DMSO concentration was 0.1 vol/vol% in all experiments. Blebbing index was calculated by summing the initiated blebs in a 5-minute interval (starting at the indicated time points) on a given standard area[17] (whole cells with similar size, diameter = 12 ± 1 μm) and normalizing it to the blebbing index prior to inhibitor treatment.
# [2] = system: zebrafish heart muscle; test: Heart beating and amplitude of heart muscle contraction; type: in vivo, zebrafish (Danio rerio); settings: 20 μM, 6 dpf
# Protocol: (§1) Since the myosin II inhibitors decrease the ATPase activity of SkS1 in vitro, we tested their inhibition on zebrafish skeletal muscle in vivo. We investigated the fast escape response (C-start) reflex of 6 dpf fish evoked by standardized tapping stimuli (Video 1). […] The velocity of the rotating heads of the embryos were quantified (maximal angular velocity) in the absence and in the presence of increasing concentrations of the myosin II inhibitors (2, 5, 10, 20 μM), monitored for 4 hours. The half maximal effective concentration (EC50) values for the inhibition of the maximal angular velocity by the myosin II inhibitors are below 2 μM since even at 2 μM the inhibitory effects were >90% for all inhibitors. We experienced that the inhibitory effect of para-aminoblebbistatin is exerted much slower than that of blebbistatin and para-nitroblebbistatin, probably due to its slower uptake (half inhibitions at […], respectively) (Supplementary Figure 1). To further evaluate the specificity of blebbistatin and its derivatives on different myosin II isoforms, we examined the effect of the inhibitors on 6 dpf (days post fertilization) zebrafish heart muscle in vivo. We monitored heart beating and the amplitude of heart muscle contraction before and after the addition of 20 μM of the inhibitors to the specimens.
# (§2) The tapping force was standardized. […] For the cytotoxicity assay, zebrafish embryos were incubated in E3 medium containing 0 μM (Control), 5 μM, 10 μM or 20 μM of para-aminoblebbistatin, para-nitroblebbistatin or blebbistatin in 0.1 vol/vol% final concentration of DMSO and monitored for 70 hours.
# [3] = system: zebrafish skeletal muscle; test: Fast escape response (C-start), maximal angular velocity; type: in vivo, zebrafish (Danio rerio); settings: 2 μM
# Protocol: as §1, §2
# [4] = system: cldnb:gfp zebrafish embryos; test: Posterior lateral line primordium (pLLp) migration; type: in vivo, zebrafish (Danio rerio); settings: 20 μM, 24 hours of incubation
# Protocol: However, the highly fluorescent, dense precipitates of blebbistatin disturb imaging in the GFP channel of the microscope. […] In this experiment, cldnb:gfp zebrafish embryos were imaged by an epifluorescent microscope after 24 hours of incubation in the presence of 20 μM concentrations of the indicated inhibitors (Fig. 4d) in order to detect the effect of myosin II inhibition on the proliferating leading edge of the posterior lateral line primordium (pLLp)[21] and visualize the effect of the precipitates by epifluorescent microcopy. […] In the case of para-aminoblebbistatin treatment, the GFP signal of the migrating pLLp can be visualized clearly, while the precipitates of the two other inhibitors highly disturbed the imaging.
# [5] = Solubility assays in assay buffer (supernatant concentration after centrifugation); settings: for Solubility: room temperature
# Protocol: (§3) 50 μM of the inhibitors were dissolved in assay buffer (see Experimental Procedures) containing 0.1 or 1 vol/vol% DMSO, centrifuged at the indicated times and the concentration of the supernatants were determined at each time point (Fig. 2a,b).
# (§4) The DMSO content was 1%. […] The experiments were repeated three times.
# [6] = system: HeLa cells; test: Wound healing assay (cell motility); type: cell-based, human; settings: 20 μM, 24 hours, uncoated glass; 100% = total diameter of the wound; control 30.6 ± 5.4%
# Protocol: For wound healing assays, 200 μl of HeLa cells were plated on 35 mm borosilicate glass imaging dishes at 300,000 cells/ml concentrations and incubated for 24 hours. 1 hour prior to wounding, cells were incubated in 20 μM of the different myosin II inhibitors. After one hour, scratches were made with pipette tips in monolayer cultures and the motility of cells for occupying the wound was monitored for 24 hours with a Foculus Digital Camera (IEEE1394). Analysis of cell motility was carried out by ImageJ, by measuring the distance between two lines fitted on the two sides of the approaching cell edges created by the pipette tips.
# [7] = biological target: T1, rabbit skeletal muscle myosin S1 (SkS1) (Oryctolagus cuniculus, UniProt Q28641); test: Steady state actin activated ATPase, SkS1; type: biochemical; settings: for IC50: 45 μM actin, 25 °C
# T1 construct: SkS1 (rabbit skeletal S1 fragment); from tissue; host or cells: rabbit skeletal muscle
# T1 sequence (Q28641 1-844 limits assumed): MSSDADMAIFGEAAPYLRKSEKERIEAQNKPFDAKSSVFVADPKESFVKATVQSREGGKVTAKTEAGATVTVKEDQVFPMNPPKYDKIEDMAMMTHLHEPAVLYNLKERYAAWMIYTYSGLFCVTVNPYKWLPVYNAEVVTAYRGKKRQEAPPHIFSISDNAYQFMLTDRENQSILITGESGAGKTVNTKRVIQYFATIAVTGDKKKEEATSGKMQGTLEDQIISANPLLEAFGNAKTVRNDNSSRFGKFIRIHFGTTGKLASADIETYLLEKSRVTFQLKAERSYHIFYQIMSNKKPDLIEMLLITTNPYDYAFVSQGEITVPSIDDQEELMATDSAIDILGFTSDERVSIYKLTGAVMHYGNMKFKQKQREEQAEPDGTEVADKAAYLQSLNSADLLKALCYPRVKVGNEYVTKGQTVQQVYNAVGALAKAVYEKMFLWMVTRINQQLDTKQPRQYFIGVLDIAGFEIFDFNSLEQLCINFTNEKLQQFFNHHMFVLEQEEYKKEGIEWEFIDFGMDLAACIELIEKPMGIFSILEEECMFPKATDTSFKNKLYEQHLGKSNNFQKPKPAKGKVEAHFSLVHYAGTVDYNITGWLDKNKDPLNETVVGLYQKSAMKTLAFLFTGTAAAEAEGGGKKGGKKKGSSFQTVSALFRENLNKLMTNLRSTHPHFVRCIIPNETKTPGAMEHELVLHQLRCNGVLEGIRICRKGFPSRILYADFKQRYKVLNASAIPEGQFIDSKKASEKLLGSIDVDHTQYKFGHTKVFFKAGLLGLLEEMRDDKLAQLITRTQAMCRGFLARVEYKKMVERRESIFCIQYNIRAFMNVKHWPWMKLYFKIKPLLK
# T1 sequence (P02602 whole entry partner, the tested form may be a part): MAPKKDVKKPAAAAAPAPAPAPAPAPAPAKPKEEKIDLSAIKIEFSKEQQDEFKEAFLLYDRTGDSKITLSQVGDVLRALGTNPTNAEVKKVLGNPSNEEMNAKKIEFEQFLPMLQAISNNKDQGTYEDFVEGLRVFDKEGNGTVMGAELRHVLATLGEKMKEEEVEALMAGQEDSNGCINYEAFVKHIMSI
# Protocol: […]. Myosin and actin together with the indicated concentration of the inhibitor were pre-incubated for 5 minutes at room temperature and the measurements were initiated with 1 mM ATP. Data were corrected for background ATPase activity of actin. G-actin was prepared accordingly from rabbit skeletal muscle[24] and polymerized by 2 mM MgCl2 for 1 hour at room temperature. Measurements were performed in low salt buffer containing 5 mM HEPES, 2 mM MgCl2, 0.1 mM EGTA and 2 mM DTT at pH 7.2 or assay buffer containing 20 mM HEPES, 40 mM NaCl, 4 mM MgCl2 at pH 7.3 for basal ATPase activity measurements with DdMD.
# [8] = biological target: T1, rabbit skeletal muscle myosin S1 (SkS1); test: Steady state basal ATPase, SkS1; type: biochemical; settings: 25 °C
# [9] = physchem
# Protocol: as §3, §4
# [10] = cited from earlier work
# [11] = system: rabbit skeletal, porcine cardiac and scallop striated myosins, vertebrate non-muscle myosin IIs and Dictyostelium discoideum myosin II; parameters: method as in PMID 15548862; settings: read-out: IC50 actin-activated ATPase activity; cited from earlier work
# [12] = system: Acanthamoeba myosin II; parameters: method as in PMID 15548862; settings: read-out: IC50 actin activated ATPase activity; cited from earlier work
# [13] = system: zebrafish embryo; parameters: method as in PMID 24954740; settings: after 24 hours of incubation; cited from earlier work
# [14] = system: smooth muscle myosin II; parameters: method as in PMID 15548862; settings: read-out: IC50 actin activated ATPase activity; cited from earlier work
SMILES,Time constant τ of inhibition of blebbing ([1]; 5 μM),Time constant τ of inhibition of blebbing ([1]; 10 μM),Time constant τ of inhibition of blebbing ([1]; 25 μM),Time within which amplitude of contraction and blood circulation dropped drastically [2],Half inhibition time of maximal angular velocity [3],Effect on pLLp migration [4],Relative migration of HeLa cells [6],IC50 [7],IC50 [8],also measured
Cc1ccc2c(c1)C(=O)[C@]1(O)CCN(c3ccc(N)cc3)C1=N2 [para-aminoblebbistatin],25.0 ± 4.3 min,16.8 ± 1.6 min,9.9 ± 0.3 min,within three hours,3.2 h,halted pLLp migration,62.6 ± 3.6%,470 ± 60 nM,1300 ± 100 nM,"Time constant τ of inhibition of blebbing ([1]; 50 μM): 7.8 ± 0.3 min; Concentration at which stable solutions are formed [5]: over 100 μM; Fold higher IC50 of AmBleb on SkS1 ([7]; comparator not named (matches ratio to Bleb)): 4.3 times; Solubility ([9]; Solubility in aqueous buffer): 440 µM; Solubility ([9]; pH 7.3, Solubility): 298 ± 2.5 µM"
Cc1ccc2c(c1)C(=O)C1(O)CCN(c3ccccc3)C1=N2 (stereo not shown) [blebbistatin],24.6 ± 2 min,10.5 ± 0.8 min,5.4 ± 1 min,within the first hour,0.6 h,halted pLLp migration,51.4 ± 4.7%,110 ± 9 nM,300 ± 30 nM,Solubility (limited solubility) ([10]; depending on the conditions of the measurements): 7 to 20 µM; Concentration above which slow precipitation is observed ([10]; water): above 10 μM; Solubility ([5]; 0.1 vol/vol% DMSO in assay buffer): 10.9 ± 0.9 µM; Solubility ([5]; 1 vol/vol% DMSO in assay buffer): 9.3 ± 0.7 µM; Solubility in aqueous buffer ([5]; abstract statement): below 10 micromolar; Time to drop to half concentration (precipitation kinetics) ([5]; freshly prepared 50 μM sample): < 20 min; Equilibrium saturation concentration ([5]; reached in two hours from 50–100 μM): 9 µM; IC50 [11]: 500 to 5000 nM; IC50 [12]: 83000 nM; Toxicity in live zebrafish embryo tests [13]: highly toxic; IC50 [14]: 79600 nM
